Measurements reported in patent US20150119352A1, “DINUCELOSIDE POLYPHOSPHATES FOR THE TREATMENT OF PAIN” (GlobalAcorn Ltd., priority 2012, published 2015).
Read-outs that look alike come from different tables or passages of the source.

Assays:
P2X3 receptors = molecular target: T1, P2X3 receptors (Homo sapiens, UniProt P56373); details: Jarvis et al, 2002; cited from earlier work
T1 sequence (P56373 1-397): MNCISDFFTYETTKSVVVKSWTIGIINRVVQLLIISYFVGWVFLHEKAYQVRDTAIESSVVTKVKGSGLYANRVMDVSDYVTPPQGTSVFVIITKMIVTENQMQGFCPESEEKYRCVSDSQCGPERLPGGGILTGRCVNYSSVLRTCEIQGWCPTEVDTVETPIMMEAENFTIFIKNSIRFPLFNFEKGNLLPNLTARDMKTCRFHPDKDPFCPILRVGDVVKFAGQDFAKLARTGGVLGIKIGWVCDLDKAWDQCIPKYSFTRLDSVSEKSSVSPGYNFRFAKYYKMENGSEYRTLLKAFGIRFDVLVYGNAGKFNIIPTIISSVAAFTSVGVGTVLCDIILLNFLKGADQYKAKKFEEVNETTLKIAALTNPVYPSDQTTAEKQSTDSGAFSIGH

male Wistar rats = experiment: Formalin test (nociceptive behaviour, spontaneous jerking of injected paw); assay type: in vivo, rat; details: for IC50: Rattus norvegicus, Table 1, concentration; for IC50 First phase (acute pain), calculated / IC50 Second phase (chronic pain), calculated: Table 1, assuming 40 g rat body weight; for First phase (acute pain) / First phase (acute pain) (μg/kg) / Second phase (chronic pain) / Second phase (chronic pain) (μg/kg): Table 2; for First phase (acute pain) Human (70 kg) nmol / Second phase (chronic pain) Human (70 kg) nmol: Table 2, estimated indicative dose for 70 kg human; for First phase (acute pain) Rat (40 g) nmol / Second phase (chronic pain) Rat (40 g) nmol: Table 2, per 40 g rat
Description: FIG. 6. Effects of subcutaneous Ap4A analogues on pain responses induced by intraplantar (right hindpaw) formalin injection. Rats were subcutaneously injected with formalin solution alone (0.5%, 50 μL, control) or co-injected with the formalin solution and solutions with AppCH2ppA (1 μM-100 μM, 100 μL) or AppNHppA (0.1 μM-100 μM, 100 μL). Age-matched control animals were injected with saline. A. Time-course of the effects of subcutaneous AppCH2ppA (a) and AppNHppA (b) on the number of the spontaneous jerkings of the injected paw. B. Bar-graphs of the effects of AppCH2ppA (a, b) and AppNHppA (c, d) on the integral number of spontaneous jerkings. Measurements were made during the acute phase (0-6 min) and tonic phase (7-45 min) of the formalin response. C. Dose-response curves for AppCH2ppA (a) and AppNHppA (b) during tonic and acute phases.
The formalin test experiments were performed on 21-day old male Wistar rats, weighing 40±5 g according to the method described previously (Simonetti et al, 2006; Yegutkin et al, 2008). Briefly, animal was acclimated to an acrylic observation chamber for at least 1 h before the injection of formalin ([…] of 0.5% solution in 0.9% saline) into the dorsal surface of the right hindpaw. Age-matched control animals were injected with saline (100 μL). Immediately after the injection, each animal was returned to the observation chamber and its behavioural characteristics were recorded for 45 min. We noticed consistently observed type of response: spontaneous jerking of the injected paw. The number of jerks was measured for each […], using self-developed computer software.
The effects of AppNHppA and AppCH2ppA were examined on the behavioral reactions of rats in inflammatory pain models. Injection of diluted formalin into a rodent's hindpaw produces a biphasic nociceptive response consisting of immediate (acute phase) and tonic (inflammatory phase) components. The first phase of a formalin response (i.e. 0-5 min after injection) involves a direct effect of formalin on the pain receptors, while changes in animal behavior during the second tonic phase (i.e. 7-45 min after injection) are caused by hyperalgesia that develops due to the sensitization of nociceptive and spinal neurons via mechanisms that are triggered by repetitive stimulation during the first phase.

[1] = read-out: IC50 First phase (acute pain)
[2] = read-out: IC50 Second phase (chronic pain)

O=C(O)c1cc(C(=O)O)c(C(=O)N(Cc2cccc(Oc3ccccc3)c2)[C@H]2CCCc3ccccc32)cc1C(=O)O [A-317491]
concentration range of binding to P2X3 receptors (P2X3 receptors): within a micromolar range

Nc1ncnc2c1ncn2[C@@H](CO)O[C@@H](CO)COP(=O)(O)OP(=O)(O)CP(=O)(O)OP(=O)(O)OC[C@H](CO)O[C@H](CO)n1cnc2c(N)ncnc21 [AdiolppCH2ppAdiol]
IC50 (male Wistar rats; [1]): ~50000 nM | IC50 (male Wistar rats; [2]): 84 ± 140 nM | IC50 First phase (acute pain), calculated (male Wistar rats): ~125 nmol/kg | IC50 Second phase (chronic pain), calculated (male Wistar rats): 0.21 ± 0.35 nmol/kg | First phase (acute pain) (male Wistar rats): ~125 nmol/kg | First phase (acute pain) (μg/kg) (male Wistar rats): (104) μg/kg | Second phase (chronic pain) (male Wistar rats): 0.21 ± 0.35 nmol/kg | Second phase (chronic pain) (μg/kg) (male Wistar rats): (0.175) μg/kg | First phase (acute pain) Human (70 kg) nmol (male Wistar rats): 8750 nmol | Second phase (chronic pain) Human (70 kg) nmol (male Wistar rats): 14.7 nmol | First phase (acute pain) Rat (40 g) nmol (male Wistar rats): 5 nmol | Second phase (chronic pain) Rat (40 g) nmol (male Wistar rats): 0.0084 nmol

Nc1nc2c(ncn2[C@@H]2O[C@H](COP(=O)(O)OP(=O)(O)CP(=O)(O)OP(=O)(O)OC[C@H]3O[C@@H](n4cnc5c(N)ncnc54)C(O)C3O)C(O)[C@@H]2O)c(=O)[nH]1 (stereo partly shown) [AppCH2ppG]
IC50 (male Wistar rats; [1]): > 100000 nM | IC50 (male Wistar rats; [2]): 180 ± 120 nM | IC50 First phase (acute pain), calculated (male Wistar rats): >250 nmol/kg | IC50 Second phase (chronic pain), calculated (male Wistar rats): 0.45 ± 0.30 nmol/kg | First phase (acute pain) (male Wistar rats): >250 nmol/kg | First phase (acute pain) (μg/kg) (male Wistar rats): (209) μg/kg | Second phase (chronic pain) (male Wistar rats): 0.45 ± 0.30 nmol/kg | Second phase (chronic pain) (μg/kg) (male Wistar rats): (0.376) μg/kg | First phase (acute pain) Human (70 kg) nmol (male Wistar rats): 17500 nmol | Second phase (chronic pain) Human (70 kg) nmol (male Wistar rats): 31.5 nmol | First phase (acute pain) Rat (40 g) nmol (male Wistar rats): 10 nmol | Second phase (chronic pain) Rat (40 g) nmol (male Wistar rats): 0.018 nmol
